Assays:
[1] = molecular target: benzodiazepine modulatory unit of the GABAA receptor complex; assay: In vitro inhibition of 3H-flunitrazepam (3H-FNM) binding; conditions: inhibition of specific 3H-FNM (1 nM) binding, rat cerebral cortex membranes, 40 min at 2° C.
Experimental: In Vitro Inhibition of ^3H-flunitrazepam (^3H-FNM) Binding
The GABA recognition site and the benzodiazepine modulatory unit can selectively be labelled with ^3H-flunitrazepam.
Preparations are performed at 0-4° C. unless otherwise indicated. Cerebral cortex from male Wistar rats (150-200 g) is homogenised for 5-10 sec in 20 ml Tris-HCl (30 mM, pH 7.4) using an Ultra-Turrax homogeniser. The suspension is centrifuged at 27,000×g for 15 min and the pellet is washed three times with buffer (centrifuged at 27,000×g for 10 min). The washed pellet is homogenized in 20 ml of buffer and incubated on a water bath (37° C.) for 30 min to remove endogenous GABA and then centrifuged for 10 min at 27,000×g. The pellet is then homogenized in buffer and centrifuged for 10 min at 27,000×g. The final pellet is resuspended in 30 ml buffer and the preparation is frozen and stored at −20° C.
The membrane preparation is thawed and centrifuged at 2° C. for 10 min at 27,000×g. The pellet is washed twice with 20 ml 50 mM Tris-citrate, pH 7.1 using an Ultra-Turrax homogeniser and centrifuged for 10 min at 27,000×g. The final pellet is resuspended in 50 mM Tris-citrate, pH 7.1 (500 ml buffer per g of original tissue), and then used for binding assays. Aliquots of 0.5 ml tissue are added to 25 μl of test solution and 25 μl of ^3H-FNM (1 nM, final concentration), mixed and incubated for 40 min at 2° C. Non-specific binding is determined using Clonazepam (1 μM, final concentration). After incubation the samples are added 5 ml of ice-cold buffer and poured directly onto Whatman GF/C glass fibre filters under suction and immediately washed with 5 ml ice-cold buffer. The amount of radioactivity on the filters is determined by conventional liquid scintillation counting. Specific binding is total binding minus non-specific binding.
25-75% inhibition of specific binding must be obtained, before calculation of an IC50.
The test value will be given as IC50 (the concentration (μM) of the test substance which inhibits the specific binding of ^3H-FNM by 50%).
Co is specific binding in control assays, and […]

SMILES	melting point [°C]	IC50 [1] [nM]
CC(=O)N1CCN(c2cccc(-n3cnc4cc(C(F)(F)F)ccc43)c2)CC1	143 to 146	–
COc1ccc2c(c1)ncn2-c1cccc(N2CCN(C(C)=O)CC2)c1	157	–
CC(=O)N1CCN(c2cccc(-n3cnc4cc(C)ccc43)c2)CC1 [Compound 23, 1-{4-[3-(5-Methyl-benzoimidazol-1-yl)-phenyl]-piperazin-1-yl}-ethanone]	145 to 146	2.6
CC(=O)N1CCN(c2cccc(-n3cnc4cc(C(C)O)ccc43)c2)CC1 (stereo not shown) [Compound 33, 1-(4-{3-[5-(1-Hydroxy-ethyl)-benzoimidazol-1-yl]-phenyl}-piperazin-1-yl)-ethanone]	126	9.6
CC(=O)N1CCN(c2cccc(-n3cnc4cc(C(C)C)ccc43)c2)CC1 [Compound 38, 1-{4-[3-(5-Isopropyl-benzoimidazol-1-yl)-phenyl]-piperazin-1-yl}-ethanone]	–	5

Reference: patent publication US20090062304A1, “Benzimidazole derivatives and their use for modulating the gaba-alpha receptor complex” (priority 2005, published 2009)
